# Data published in PubChem BioAssay (NCI).
#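 Dose response: 5 concentrations. Exposure: 48 h. Format: 96-well plates. Endpoint: linear interpolation; highest concentration if not reached. Definition used: TGI = concentration required for complete inhibition of growth.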
# What was measured:
# Experiment in all cases: inhibition of tumour cell growth, NCI panel, 48 h
# KM12 colon = test system: KM12 colon
# ACHN renal = test system: ACHN renal
# SK-MEL-5 melanoma = test system: SK-MEL-5 melanoma
# SK-MEL-28 melanoma = test system: SK-MEL-28 melanoma
# HCC-2998 colon = test system: HCC-2998 colon
# COLO 205 colon = test system: COLO 205 colon
# SF-295 CNS = test system: SF-295 CNS
# SF-539 CNS = test system: SF-539 CNS
# UO-31 renal = test system: UO-31 renal
# SK-MEL-2 melanoma = test system: SK-MEL-2 melanoma
# MDA-MB-231 breast = test system: MDA-MB-231 breast
# PC-3 prostate = test system: PC-3 prostate
# RXF 393 renal = test system: RXF 393 renal
# CAKI-1 renal = test system: CAKI-1 renal
# RPMI-8226 leukemia = test system: RPMI-8226 leukemia
# SNB-19 CNS = test system: SNB-19 CNS
# DU-145 prostate = test system: DU-145 prostate
# OVCAR-5 ovarian = test system: OVCAR-5 ovarian
# NCI-H522 lung = test system: NCI-H522 lung
structure (smiles),measurement,setting,value
COc1ccc2c(=O)c3c([nH]c2c1)OCC3=O,TGI,KM12 colon,> 100 µM
same,TGI,ACHN renal,> 100 µM
same,TGI,SK-MEL-5 melanoma,> 100 µM
same,TGI,SK-MEL-28 melanoma,> 100 µM
same,TGI,HCC-2998 colon,> 100 µM
same,TGI,COLO 205 colon,> 100 µM
same,TGI,SF-295 CNS,> 100 µM
same,TGI,SF-539 CNS,> 100 µM
same,TGI,UO-31 renal,> 100 µM
same,TGI,SK-MEL-2 melanoma,> 100 µM
same,TGI,MDA-MB-231 breast,> 100 µM
same,TGI,PC-3 prostate,> 100 µM
same,TGI,RXF 393 renal,> 100 µM
same,TGI,CAKI-1 renal,> 100 µM
same,TGI,RPMI-8226 leukemia,> 100 µM
same,TGI,SNB-19 CNS,> 100 µM
same,TGI,DU-145 prostate,> 100 µM
C=CCCCN1CCCCC1=S,TGI,KM12 colon,> 100 µM
same,TGI,ACHN renal,> 100 µM
same,TGI,SK-MEL-5 melanoma,> 100 µM
same,TGI,OVCAR-5 ovarian,> 100 µM
same,TGI,SK-MEL-28 melanoma,> 100 µM
same,TGI,HCC-2998 colon,> 100 µM
same,TGI,COLO 205 colon,> 100 µM
same,TGI,SF-295 CNS,> 100 µM
same,TGI,SF-539 CNS,> 100 µM
same,TGI,UO-31 renal,> 100 µM
same,TGI,SK-MEL-2 melanoma,> 100 µM
same,TGI,NCI-H522 lung,> 100 µM
same,TGI,RXF 393 renal,> 100 µM
same,TGI,RPMI-8226 leukemia,> 100 µM
same,TGI,SNB-19 CNS,> 100 µM
C#CC(C)(C)OCCCCOc1cc(O)c2c(=O)c3ccccc3n(C)c2c1,TGI,KM12 colon,> 100 µM
same,TGI,ACHN renal,> 100 µM
same,TGI,SK-MEL-5 melanoma,> 100 µM
same,TGI,OVCAR-5 ovarian,> 100 µM
same,TGI,SK-MEL-28 melanoma,> 100 µM
same,TGI,HCC-2998 colon,> 100 µM
same,TGI,COLO 205 colon,80.4 µM
same,TGI,SF-295 CNS,> 100 µM
same,TGI,SF-539 CNS,> 100 µM
same,TGI,UO-31 renal,> 100 µM
same,TGI,SK-MEL-2 melanoma,> 100 µM
same,TGI,NCI-H522 lung,> 100 µM
same,TGI,RXF 393 renal,> 100 µM
same,TGI,CAKI-1 renal,> 100 µM
same,TGI,RPMI-8226 leukemia,> 100 µM
same,TGI,SNB-19 CNS,> 100 µM
O=[N+]([O-])c1cccc(C2=NN(c3ccccc3)C3c4ccccc4OCC23)c1 (centres undefined),TGI,KM12 colon,> 100 µM
same,TGI,ACHN renal,> 100 µM
same,TGI,OVCAR-5 ovarian,> 100 µM
same,TGI,SK-MEL-28 melanoma,> 100 µM
same,TGI,HCC-2998 colon,> 100 µM
same,TGI,COLO 205 colon,> 100 µM
same,TGI,SF-295 CNS,> 100 µM
same,TGI,SF-539 CNS,> 100 µM
same,TGI,UO-31 renal,> 100 µM
same,TGI,SK-MEL-2 melanoma,> 100 µM
same,TGI,NCI-H522 lung,> 100 µM
same,TGI,RXF 393 renal,> 100 µM
same,TGI,RPMI-8226 leukemia,> 100 µM
same,TGI,SNB-19 CNS,> 100 µM
O=C1NC(=S)NC(=O)C1=CC1CC1,TGI,KM12 colon,> 100 µM
same,TGI,ACHN renal,> 100 µM
same,TGI,SK-MEL-5 melanoma,> 100 µM
same,TGI,OVCAR-5 ovarian,> 100 µM
same,TGI,SK-MEL-28 melanoma,> 100 µM
same,TGI,HCC-2998 colon,> 100 µM
same,TGI,COLO 205 colon,> 100 µM
same,TGI,SF-295 CNS,> 100 µM
same,TGI,SF-539 CNS,> 100 µM
same,TGI,UO-31 renal,> 100 µM
same,TGI,SK-MEL-2 melanoma,> 100 µM
same,TGI,NCI-H522 lung,> 100 µM
same,TGI,RXF 393 renal,> 100 µM
same,TGI,CAKI-1 renal,> 100 µM
same,TGI,RPMI-8226 leukemia,> 100 µM
same,TGI,SNB-19 CNS,> 100 µM
CCc1ccc(Cc2ccc(CC)c(NC(=O)C(=O)C3NC(=S)NC3=O)c2CC)c(CC)c1NC(=O)C(=O)C1NC(=S)NC1=O (centres undefined),TGI,KM12 colon,> 100 µM
same,TGI,ACHN renal,> 100 µM
same,TGI,SK-MEL-5 melanoma,> 100 µM
same,TGI,OVCAR-5 ovarian,> 100 µM
same,TGI,SK-MEL-28 melanoma,> 100 µM
same,TGI,HCC-2998 colon,> 100 µM
same,TGI,COLO 205 colon,> 100 µM
same,TGI,SF-539 CNS,> 100 µM
same,TGI,UO-31 renal,> 100 µM
same,TGI,SK-MEL-2 melanoma,> 100 µM
same,TGI,NCI-H522 lung,> 100 µM
same,TGI,RXF 393 renal,> 100 µM
same,TGI,CAKI-1 renal,> 100 µM
same,TGI,RPMI-8226 leukemia,> 100 µM
same,TGI,SNB-19 CNS,> 100 µM
CSc1ccc2c(cc1=O)C(NC(=O)c1ccccc1)CCc1cc(O)c(O)c(O)c1-2 (centres undefined),TGI,KM12 colon,27.5 µM
same,TGI,ACHN renal,> 100 µM
same,TGI,SK-MEL-5 melanoma,12.7 µM
same,TGI,OVCAR-5 ovarian,> 100 µM
same,TGI,SK-MEL-28 melanoma,> 100 µM
same,TGI,HCC-2998 colon,36.2 µM
same,TGI,COLO 205 colon,73.4 µM
same,TGI,SF-295 CNS,> 100 µM
same,TGI,SF-539 CNS,10.6 µM
same,TGI,UO-31 renal,> 100 µM
same,TGI,SK-MEL-2 melanoma,> 100 µM
same,TGI,NCI-H522 lung,35.6 µM
same,TGI,RXF 393 renal,> 100 µM
same,TGI,CAKI-1 renal,88 µM
same,TGI,RPMI-8226 leukemia,62.6 µM
same,TGI,SNB-19 CNS,27.1 µM
